Values after ≈ are worked out from the molar mass of the structure shown.
Columns and labels:
[1] = test system: AML-193 cells (acute monocytic leukemia); assay: AML 193 cell culture assay (3H-thymidine incorporation); assay type: cell-based, human; conditions: FIG. 3; low concentrations
Protocol: (§1) All trans-retinoic acid (t-RA) (Sigma Chemicals Co., St. Louis, Mo.) was stored at −70° C. Prior to each experiment the compound was dissolved in 100% ethanol at 1 mM and diluted in culture medium immediately before use. All experiments were performed in subdued light. Controls were assayed using the same concentration of ethanol as present in the experimental plates and this concentration of diluent had no effect in either assay.
AML-193 was established from the blast cells classified as M5 Acute Monocyte Leukemia. The growth factor, […] (GM-CSF) was required to establish this cell line and growth factors are necessary for its continuous proliferation in chemically defined medium. AML-193 cells were grown and maintained in Iscove's modified Dulbecco's medium supplemented with 10% fetal bovine serum, glutamine and antibiotics with 5 μg/ml insulin (Sigma Chemical Co.) and 2 ng/ml rh GM-CSF (R and D Systems). The cells were diluted to a concentration of 3×10^5/ml twice a week.
(§2) AML-193 cells were plated in a 96 well round bottom microtiter plate (Costar) at a density of 1,000 cells/well. To appropriate wells, retinoid test compounds were added at the final concentrations indicated for a final volume of 150 μl/well. The plates were incubated for 96 hours at 37° C. in a humidified atmosphere of 5% CO2 in air. Subsequently, 1 μCi of [5′-^3H]-thymidine (Amersham, U.K., 43 Ci/mmol specific activity) in 25 μl culture medium was added to each well and the cells were incubated for an additional 6 hours.
(§3) The cell lines were then processed as follows: the cellular DNA was precipitated with 10% trichloroacetic acid onto glass fiber filter mats using a SKATRON multi-well cell harvester (Skatron Instruments, Sterling Va.). Radioactivity incorporated into DNA, as a direct measurement of cell growth, was measured by liquid scintillation counting. The numbers represent the mean disintegrations per minute of incorporated thymidine from triplicate wells±SEM.

[2] = test system: limb bud mesenchymal cells; assay: Chondrogenesis suppression bioassay (teratogenic potency); assay type: cell-based; conditions: read-out: IC50 (50% inhibition of chondrogenesis); mouse limb bud spot cultures, 96 hours after plating; greater IC50 signifies lesser teratogenecity
Protocol: High-density “spot” cultures of limb bud mesenchymal cells are used to compare the ability of various concentrations of test drugs to suppress chondrogenic differentiation as a bioassay. Forelimb buds of mouse embryos on day 12 of gestation (54±2 somites) are dissociated in a trypsin-EDTA solution, and the resultant single-cell suspension is plated as 20-μl spots (200,000 cells/spot) on plastic culture dishes. Retinoid concentrations ranging from 0.3 ng/ml to 3 μg/ml (1 nM−10 μM) are added to the culture medium (Eagle's MEM±10% fetal bovine serum, GIBCO) 24 hours after initial plating. Control cultures receive only the vehicle (ethanol, concentration≦1% by vol); Retinoic acid is used as a positive control in another set of cultures.
The cultures are terminated 96 hours after plating, at which time the medium is removed and the cells are fixed for 1 hour in 10% formalin containing 0.5% cetylpyridinium chloride. The cultures are rinsed in acetic acid and stained for 1 hour in 0.5% Alcian blue solution at pH 1.0, differentiated in 3% acetic acid, and then dehydrated in ethanol and scored for chondrogenesis under the microscope. An absence or reduction in the number of cartilage nodules in stained cultures as compared with control cultures is taken as a measure of suppression of chondrogenesis. The number of cartilage nodules stained in the whole spot, mean number of nodules, and standard deviations are calculated for four replicate cultures per treatment. […] The IC50 values are expressed in nanogram per mililiter (ng/ml) units. An IC50 value of greater concentration in this assay signifies lesser teratogenecity.

[3] = test system: RPMI 8226 cells (malignant myeloma); assay: RPMI 8226 cell culture assay (3H-thymidine incorporation); assay type: cell-based, human; conditions: FIG. 1; low concentration range 10^−12 to approximately 10^−9
Protocol: as §1
The cell lines, RPMI 8226, ME-180 and AML-193 were obtained from the American Type Culture Collection (ATCC, Rockville, Md.). RPMI 8226 is a human hematopoietic cell line obtained from the peripheral blood of a patient with multiple myeloma. The cells resemble the lymphoblastoid cells of other human lymphocyte cell lines and secrete […] light chains of immunoglobulin. RPMI-8226 cells are grown in RPMI medium (Gibco) supplemented with 10% fetal bovine serum, glutamine and antibiotics. The cells were maintained as suspension cultures grown at 37° C. in a humidified atmosphere of 5% CO2 in air. The cells were diluted to a concentration of 1×10^5/ml twice a week.
as §2, with “The method used for determination of the incorporation of radiolabeled thymidine was adapted from the procedure described by Shrivastav et al. RPMI-8226” for “AML-193”, “U.K.” for “U.K.,”, “hours. The cultures were further processed as described below.” for “hours.”
as §3

[4] = test system: retinal pigment epithelium (RPE) cells; assay: Primary RPE culture proliferation; assay type: cell-based, human; conditions: FIG. 5; 10^−10 to 10^−6 M, six days treatment
Protocol: Primary cultures of human retinal pigment epithelium (RPE) were established from eyes as previously described, (Campochiaro et al., Invest. Opthal & Vis. Sci. 32:65-72 (1991)). 5×10^4 Cells were plated in 16-mm wells of 24-well multiwell plates in Dulbecco's modified Eagle's medium (DMEM Gibco) containing 10% fetal bovine serum (FBS). Cells were treated with ethanol alone (control), ATRA (10^−10 to 10^−6 M) in ethanol, and Compound 42 (10^−10 to 10^−6 M) in ethanol. Cells were fed with fresh media containing the appropriate concentrations of these compounds every two days for a total of six days treatment. Cells were removed from the plates via treatment with trypsin and the number of cells were counted with an electronic cell counter.

ovarian tumor cells = assay: EDR assay on cells from solid tumors of patients; assay type: cell-based, human; conditions: FIG. 4; tumors from 4 patients, four days with drug
Protocol: Freshly resected solid tumor biopsies were received within 24 hours of surgery. Species were processed for assay after retaining a portion of the tumor for paraffin embedding and histopathologic confirmation of specimen viability and tissue diagnosis. The remaining specimen was dissociated into small fragments using sterile scissors. The small tissue fragments were then exposed to collagenase and DNAase for 2 hours with mixing a CO2 incubator in order to release the tumor cells from the connective tissue stroma. The resulting cell suspension was washed, and cell counts determined from a cytospin preparation. Tumor cells were resuspended at 40,000 cells per ml in 0.3% agarose in RMPI 1640 supplemented with 15% FCS, glutamine and antibiotics, and 0.5 ml were plated into each well of a 24 well plate over 0.5 ml layer of 0.5% agarose. These culture conditions prevent cell adherence, thereby allowing only transformed cells to proliferate. Additionally, the cells grow into three dimensional spheroids, recapitulating their in vivo morphology.
Retinoid drugs were added 24 hours after plating to insure specimen reequilibration to a growth environment after the rigors of transport and processing. […] After the agarose-cell suspension was liquefied at 90° C., cells were harvested onto glass fiber filters, which were counted in 5 ml scintillation fluid using a Beckman 6500 liquid scintillation counter. […]

Compound	AML-193 cell proliferation at low concentrations [1]	IC50 [2] [µg/mL]	growth of RPMI 8226 cells at low concentration [3]	RPE cell proliferation [4]	ovarian tumor cell proliferation (ovarian tumor cells)
CC1=C(/C=C/C(C)=C/C=C/C(C)=C/C(=O)O)C(C)(C)CCC1 [ATRA, all trans retinoic acid, reference compound]	promotes cell proliferation	0.055 (≈ 0.183 µM)	facilitates growth	dose dependent decrease in RPE cell proliferation	
CC1(C)CCC(C)(C)c2cc(C(=O)Nc3ccc(C(=O)O)c(F)c3)ccc21 [Compound 2]					inhibits this tumor cell proliferation in a concentration dependent manner

Source: US6610744B2, “Methods of treatment with compounds having RARα receptor specific or selective activity” (Allergan, Inc., priority 1995, dated 2003)
